Source: ChEMBL document CHEMBL2016476, “Phosphonium lipocations as antiparasitic agents” (Bioorg Med Chem Lett, 2012)

Legend:
Plasmodium falciparum = assay: microbe, parasite or virus in culture; conditions: W2
Description: Antiplasmodial activity against Plasmodium falciparum W2 infected in human erythrocytes

[1] = Octanol-water partition coefficient, log D of the compound at pH 7.4; assay type: physicochemical
Trypanosoma cruzi = assay: Antitrypanosomal activity against Trypanosoma cruzi Tulahuen 2 infected in african green monkey Vero cells expressing red fluorescent protein after 3 days by fluorescence analysis; assay type: functional, organism-based; conditions: Tulahuen 2, Vero, 72 h
Vero [2] = assay: Cytotoxicity against african green monkey Vero cells at 25 uM after 3 days; assay type: cell-based; conditions: chlorocebus sabaeus, 72 h
Vero [3] = assay: Cytotoxicity against african green monkey Vero cells at 6.25 uM after 3 days; assay type: cell-based; conditions: chlorocebus sabaeus, 72 h

Question: With `O=C1C=C(NCCCCCCCCCC[P+](C2CCCCC2)(C2CCCCC2)C2CCCCC2)C(=O)c2ccccc21` as the molecule, how does the IC50 (Plasmodium falciparum) read?
Answer: 0.0944 µM

Question: What about the logD [1] of the same molecule?
Answer: 3.41

Question: For `CCCCCCCCCC[P+](c1ccccc1)(c1ccccc1)c1ccccc1` [DECYLTRIPHENYLPHOSPHONIUM], which IC50 (Plasmodium falciparum) is on record?
Answer: 0.142 µM

Question: For `CC1=C(CCCCCCCCCC[P+](C)(C)C)C(=O)c2ccccc2C1=O`, which IC50 (Plasmodium falciparum) is on record?
Answer: 0.404 µM

Question: What about the logD [1] of the same molecule?
Answer: 1.95

Question: What does the source list for `CC1=C(CCCCCCCCCC[P+](Cc2ccccc2)(Cc2ccccc2)Cc2ccccc2)C(=O)c2ccccc2C1=O`?
Answer: IC50 (Plasmodium falciparum): 0.212 µM; logD [1]: 6.64; IC50 (Trypanosoma cruzi): 3.7 µM; Activity (Vero [2]): Toxic; Activity (Vero [3]): Non-toxic

Question: Which results are given for `CCCC[P+](CCCC)(CCCC)CCCCCCCCCCC1=C(C)C(=O)c2ccccc2C1=O`?
Answer: IC50 (Plasmodium falciparum): 0.156 µM; logD [1]: 5.1; IC50 (Trypanosoma cruzi): 4 µM; Activity (Vero [2]): Toxic; Activity (Vero [3]): Non-toxic

Question: With `O=C1C=C(CCCCCCCCCC[P+](c2ccccc2)(c2ccccc2)c2ccccc2)C(=O)c2ccccc21` as the molecule, how does the IC50 (Plasmodium falciparum) read?
Answer: 0.259 µM

Question: And the logD [1]?
Answer: 4.08

Question: With `CC1=C(CCCCC[P+](c2ccccc2)(c2ccccc2)c2ccccc2)C(=O)c2ccccc2C1=O` as the molecule, how does the IC50 (Plasmodium falciparum) read?
Answer: 0.0483 µM

Question: What about the logD [1] of the same molecule?
Answer: 2.15

Question: And the IC50 (Trypanosoma cruzi)?
Answer: 5.4 µM

Question: What about the Activity (Vero [2]) of the same molecule?
Answer: Toxic

Question: And the Activity (Vero [3])?
Answer: Non-toxic

Question: For `CC1=C(CCCCCCCCCC[P+](C2CCCCC2)(C2CCCCC2)C2CCCCC2)C(=O)c2ccccc2C1=O`, which IC50 (Plasmodium falciparum) is on record?
Answer: 0.134 µM

Question: What about the logD [1] of the same molecule?
Answer: 3.64

Question: And the IC50 (Trypanosoma cruzi)?
Answer: 2.4 µM

Question: What about the Activity (Vero [2]) of the same molecule?
Answer: Toxic

Question: What about the Activity (Vero [3]) of the same molecule?
Answer: Non-toxic

Question: Which IC50 (Plasmodium falciparum) does the source give for `COc1ccc([P+](CCCCCCCCCCN2C(=O)c3ccccc3C2=O)(c2ccc(OC)cc2)c2ccc(OC)cc2)cc1` here?
Answer: 0.134 µM

Question: And the logD [1]?
Answer: 3.19

Question: For `O=C1c2ccccc2C(=O)N1CCCCCCCCCC[P+](c1ccc(F)cc1)(c1ccc(F)cc1)c1ccc(F)cc1`, which IC50 (Plasmodium falciparum) is on record?
Answer: 0.346 µM

Question: What about the logD [1] of the same molecule?
Answer: 2.13

Question: Which IC50 (Plasmodium falciparum) does the source give for `O=C1C=C(NCCCCCCCCCC[P+](Cc2ccccc2)(Cc2ccccc2)Cc2ccccc2)C(=O)c2ccccc21` here?
Answer: 0.215 µM

Question: And the logD [1]?
Answer: 2.8

Question: Which results are given for `CCCCCCCCCCC1=CC(=O)c2ccccc2C1=O`?
Answer: IC50 (Plasmodium falciparum): > 10 µM; IC50 (Trypanosoma cruzi): 9.3 µM; Activity (Vero [2]): Non-toxic; Activity (Vero [3]): Non-toxic

Question: For `CC1=C(C[P+](c2ccccc2)(c2ccccc2)c2ccccc2)C(=O)c2ccccc2C1=O`, which IC50 (Plasmodium falciparum) is on record?
Answer: 0.543 µM

Question: What about the logD [1] of the same molecule?
Answer: 1.89

Question: For `CCCCCCCCCCN1C(=O)c2ccccc2C1=O`, which IC50 (Plasmodium falciparum) is on record?
Answer: > 10 µM

Question: Which IC50 (Plasmodium falciparum) does the source give for `Cc1ccccc1[P+](CCCCCCCCCCN1C(=O)c2ccccc2C1=O)(c1ccccc1C)c1ccccc1C` here?
Answer: 0.143 µM

Question: And the logD [1]?
Answer: -0.75

Question: With `COc1ccc([P+](CCCCCCCCCCNC2=CC(=O)c3ccccc3C2=O)(c2ccc(OC)cc2)c2ccc(OC)cc2)cc1` as the molecule, how does the IC50 (Plasmodium falciparum) read?
Answer: 0.134 µM

Question: What about the logD [1] of the same molecule?
Answer: 4.37

Question: Which IC50 (Plasmodium falciparum) does the source give for `O=C1C(O)=C([C@H]2CC[C@H](c3ccc(Cl)cc3)CC2)C(=O)c2ccccc21` [ATOVAQUONE] here?
Answer: 0.00028 µM

Question: With `C[C@@H]1CC[C@H]2[C@@H](C)C(=O)O[C@@H]3O[C@@]4(C)CC[C@@H]1[C@]32OO4` [ARTEMISININ] as the molecule, how does the IC50 (Plasmodium falciparum) read?
Answer: 0.00731 µM

Question: For `COc1ccc([P+](CCCCCCCCCCC2=C(C)C(=O)c3ccccc3C2=O)(c2ccc(OC)cc2)c2ccc(OC)cc2)cc1`, which IC50 (Plasmodium falciparum) is on record?
Answer: 0.131 µM

Question: And the logD [1]?
Answer: 3.52

Question: Which results are given for `O=C1C=C(CCCCCCCCCC[P+](Cc2ccccc2)(Cc2ccccc2)Cc2ccccc2)C(=O)c2ccccc21`?
Answer: IC50 (Plasmodium falciparum): 1.3 µM; logD [1]: 5.32; IC50 (Trypanosoma cruzi): 3 µM; Activity (Vero [2]): Non-toxic; Activity (Vero [3]): Non-toxic

Question: Which IC50 (Plasmodium falciparum) does the source give for `O=C1c2ccccc2C(=O)N1CCCCCCCCCC[P+](C1CCCCC1)(C1CCCCC1)C1CCCCC1` here?
Answer: 0.141 µM

Question: What about the logD [1] of the same molecule?
Answer: 4.5

Question: For `O=C1C=C(CCCCC[P+](c2ccccc2)(c2ccccc2)c2ccccc2)C(=O)c2ccccc21`, which IC50 (Plasmodium falciparum) is on record?
Answer: 0.157 µM

Question: And the logD [1]?
Answer: 1

Question: For `O=C1c2ccccc2C(=O)N1CCCC[P+](c1ccccc1)(c1ccccc1)c1ccccc1`, which IC50 (Plasmodium falciparum) is on record?
Answer: 3.5 µM

Question: And the logD [1]?
Answer: 0.01

Question: What does the source list for `CCCCCCCCCNC1=CC(=O)c2ccccc2C1=O`?
Answer: IC50 (Plasmodium falciparum): > 10 µM; IC50 (Trypanosoma cruzi): 17.3 µM; Activity (Vero [2]): Non-toxic; Activity (Vero [3]): Non-toxic

Question: Which IC50 (Plasmodium falciparum) does the source give for `CC1=C(CCCCC[P+](C)(C)C)C(=O)c2ccccc2C1=O` here?
Answer: 0.956 µM

Question: And the logD [1]?
Answer: 0.21

Question: What does the source list for `O=C1c2ccccc2C(=O)N1CCCCCCCCCC[P+](Cc1ccccc1)(Cc1ccccc1)Cc1ccccc1`?
Answer: IC50 (Plasmodium falciparum): 0.288 µM; logD [1]: 1.37

Question: Which results are given for `O=C1C=C(NCC[P+](c2ccccc2)(c2ccccc2)c2ccccc2)C(=O)c2ccccc21`?
Answer: IC50 (Plasmodium falciparum): 0.52 µM; logD [1]: -1.08

Question: For `O=C(Cn1ccnc1[N+](=O)[O-])NCc1ccccc1` [BENZNIDAZOLE], which Activity (Vero [2]) is on record?
Answer: Non-toxic

Question: And the Activity (Vero [3])?
Answer: Non-toxic

Question: With `CC1=C(CCCC[P+](c2ccccc2)(c2ccccc2)c2ccccc2)C(=O)c2ccccc2C1=O` as the molecule, how does the IC50 (Plasmodium falciparum) read?
Answer: 0.0187 µM

Question: And the logD [1]?
Answer: 1.91

Question: And the IC50 (Trypanosoma cruzi)?
Answer: 2.7 µM

Question: And the Activity (Vero [2])?
Answer: Non-toxic

Question: What about the Activity (Vero [3]) of the same molecule?
Answer: Non-toxic

Question: Which IC50 (Plasmodium falciparum) does the source give for `O=C1C=C(NCCCCCCCCCC[P+](c2ccccc2)(c2ccccc2)c2ccccc2)C(=O)c2ccccc21` here?
Answer: 0.114 µM

Question: And the logD [1]?
Answer: 3.6

Question: And the IC50 (Trypanosoma cruzi)?
Answer: 1.6 µM

Question: What about the Activity (Vero [2]) of the same molecule?
Answer: Toxic

Question: And the Activity (Vero [3])?
Answer: Toxic

Question: With `CC1=C(CCCCCCCCCC[P+](c2ccccc2)(c2ccccc2)c2ccccc2)C(=O)c2ccccc2C1=O` as the molecule, how does the IC50 (Plasmodium falciparum) read?
Answer: 0.143 µM

Question: And the logD [1]?
Answer: 3.97

Question: What about the IC50 (Trypanosoma cruzi) of the same molecule?
Answer: 1.6 µM

Question: What about the Activity (Vero [2]) of the same molecule?
Answer: Toxic

Question: And the Activity (Vero [3])?
Answer: Toxic

Question: Which IC50 (Plasmodium falciparum) does the source give for `O=C1c2ccccc2C(=O)N1CCCCCC[P+](c1ccccc1)(c1ccccc1)c1ccccc1` here?
Answer: 1.02 µM

Question: And the logD [1]?
Answer: 1.14

Question: With `CCCC[P+](CCCC)(CCCC)CCCCCCCCCCN1C(=O)c2ccccc2C1=O` as the molecule, how does the IC50 (Plasmodium falciparum) read?
Answer: 0.194 µM

Question: And the logD [1]?
Answer: 3.68

Question: What does the source list for `O=C1C=C(NCCCCCCCCCC[P+](c2ccc(F)cc2)(c2ccc(F)cc2)c2ccc(F)cc2)C(=O)c2ccccc21`?
Answer: IC50 (Plasmodium falciparum): 0.292 µM; logD [1]: 1.67

Question: For `C[P+](C)(C)CCCCCCCCCCN1C(=O)c2ccccc2C1=O`, which IC50 (Plasmodium falciparum) is on record?
Answer: > 10 µM

Question: What about the logD [1] of the same molecule?
Answer: -0.08

Question: With `CC1=C(CCCCCCCCCC[P+](c2ccccc2C)(c2ccccc2C)c2ccccc2C)C(=O)c2ccccc2C1=O` as the molecule, how does the IC50 (Plasmodium falciparum) read?
Answer: 0.143 µM

Question: What about the logD [1] of the same molecule?
Answer: 3.58

Question: With `O=C1C=C(CCCCCCCCCC[P+](c2ccc(F)cc2)(c2ccc(F)cc2)c2ccc(F)cc2)C(=O)c2ccccc21` as the molecule, how does the IC50 (Plasmodium falciparum) read?
Answer: 0.846 µM

Question: What about the logD [1] of the same molecule?
Answer: 1.66

Question: Which IC50 (Plasmodium falciparum) does the source give for `O=C1c2ccccc2C(=O)N1CCCCCCCCCC[P+](c1ccccc1)(c1ccccc1)c1ccccc1` here?
Answer: 0.173 µM

Question: What about the logD [1] of the same molecule?
Answer: 1.67

Question: For `CCCC[P+](c1ccccc1)(c1ccccc1)c1ccccc1` [BUTYLTRIPHENYLPHOSPHONIUM], which IC50 (Plasmodium falciparum) is on record?
Answer: 3.5 µM
